Legend:
[1] = biological target: Peptide N-myristoyltransferase (Candida albicans)
[2] = biological target: T1, Peptide N-myristoyltransferase (Homo sapiens, UniProt P30419+O60551); test: Inhibition activity against N-myristoyltransferase (NMT) of human.; format: protein assay
T1 sequence (P30419 whole entry): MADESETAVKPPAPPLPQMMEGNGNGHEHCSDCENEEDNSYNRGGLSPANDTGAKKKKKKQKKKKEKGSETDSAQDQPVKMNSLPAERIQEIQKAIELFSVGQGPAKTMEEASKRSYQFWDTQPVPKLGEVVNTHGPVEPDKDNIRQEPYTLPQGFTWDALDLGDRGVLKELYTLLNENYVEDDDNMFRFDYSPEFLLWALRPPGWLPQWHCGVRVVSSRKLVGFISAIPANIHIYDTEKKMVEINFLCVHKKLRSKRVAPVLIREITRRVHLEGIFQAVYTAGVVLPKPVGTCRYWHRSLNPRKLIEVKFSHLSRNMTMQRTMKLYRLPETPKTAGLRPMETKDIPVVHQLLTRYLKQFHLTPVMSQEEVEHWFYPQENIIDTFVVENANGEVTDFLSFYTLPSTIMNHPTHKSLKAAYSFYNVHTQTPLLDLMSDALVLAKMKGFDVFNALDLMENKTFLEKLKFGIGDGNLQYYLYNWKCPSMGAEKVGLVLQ
T1 sequence (O60551 whole entry): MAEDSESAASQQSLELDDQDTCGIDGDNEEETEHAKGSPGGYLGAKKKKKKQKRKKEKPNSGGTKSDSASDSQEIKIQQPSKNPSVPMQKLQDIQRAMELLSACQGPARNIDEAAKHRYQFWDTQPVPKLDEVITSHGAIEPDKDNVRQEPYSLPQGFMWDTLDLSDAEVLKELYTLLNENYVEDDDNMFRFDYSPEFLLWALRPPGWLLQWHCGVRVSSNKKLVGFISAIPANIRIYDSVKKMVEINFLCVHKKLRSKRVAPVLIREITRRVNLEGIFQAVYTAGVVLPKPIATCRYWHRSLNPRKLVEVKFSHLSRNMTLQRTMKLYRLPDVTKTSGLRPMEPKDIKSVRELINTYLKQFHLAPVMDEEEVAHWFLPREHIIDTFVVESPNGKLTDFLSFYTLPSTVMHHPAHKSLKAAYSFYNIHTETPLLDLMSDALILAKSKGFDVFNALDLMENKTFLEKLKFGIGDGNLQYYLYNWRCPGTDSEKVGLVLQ

Candida albicans [3] = test: Growth inhibitory activity against candida albicans.; format: functional, organism-based
Cryptococcus neoformans = test: Growth inhibitory activity against Cryptococcus neoformans.; format: functional, organism-based
Candida albicans [4] = test: tested to obtain the effective concentration to inhibit candida albicans.; format: functional, organism-based

Structure (SMILES) | IC50 [1] | IC50 [2] | EC50 (Candida albicans [4]) | EC50 (Candida albicans [3]) | EC50 (Cryptococcus neoformans)
Cc1nc2ccccc2n1CCCCc1ccc(C(C)C(=O)N[C@@H](CO)C(=O)N[C@@H](CCCCN)C(=O)NCCC2CCCCC2)cc1 (stereo not given in full) | 0.86 µM | 119.5 µM | – | – | –
Cc1nccn1CCCCc1ccc(CC(=O)N[C@@H](CO)C(=O)N[C@@H](CCCCN)C(=O)N[C@@H](CC2CCCCC2)C(=O)O)cc1 | 1.45 µM | 809.5 µM | – | 51 µM | > 100 µM
Cc1nccn1CCCCc1ccc(CC(=O)N[C@H](CO)C(=O)N[C@H](CCCCN)C(=O)N[C@H](CC2CCCCC2)C(=O)O)cc1 | > 1000 µM | > 1000 µM | > 100 µM | – | > 100 µM
Cc1nccn1CCCCc1ccc(C(C)C(=O)N[C@@H](CO)C(=O)N[C@@H](CCCCN)C(=O)N[C@@H](CC2CCCCC2)C(=O)O)cc1 (stereo not given in full) | 0.38 µM | 840 µM | 33 µM | – | > 100 µM
CC(C)c1nccn1CCCCc1ccc(CC(=O)N[C@@H](CO)C(=O)N[C@@H](CCCCN)C(=O)NCCC2CCCCC2)cc1 | 0.2 µM | > 100 µM | – | – | –
COC(=O)[C@H](NC(=O)[C@H](CCCCN)NC(=O)[C@H](CO)NC(=O)Cc1ccc(CCCCn2ccnc2C)cc1)C(=O)O | 0.081 µM | 22.7 µM | > 100 µM | – | > 100 µM
CC(C(=O)N[C@@H](CO)C(=O)N[C@@H](CCCCN)C(=O)NCCC1CCCCC1)c1ccc(CCCCn2ccnc2Cl)cc1 (stereo not given in full) | 2.05 µM | 142 µM | – | – | –

Continued, in another order:

IC50 [1] | IC50 [2] | EC50 (Candida albicans [4]) | Structure (SMILES) | EC50 (Candida albicans [3]) | EC50 (Cryptococcus neoformans)
0.31 µM | – | – | NCCCC[C@H](NC(=O)[C@H](CO)NC(=O)Cc1ccc(CCCCn2ccnc2)cc1)C(=O)NCCC1CCCCC1 | – | –
1.88 µM | – | – | NCCCC[C@H](NC(=O)[C@H](CO)NC(=O)Cc1ccc(CCCCn2ccnc2I)cc1)C(=O)NCCC1CCCCC1 | – | –
5.5 µM | – | – | NCCCC[C@H](NC(=O)[C@H](CO)NC(=O)CCCCCCCCn1ccnc1)C(=O)NCCC1CCCCC1 | – | –
0.147 µM | 28.2 µM | – | CCc1nccn1CCCCc1ccc(CC(=O)N[C@@H](CO)C(=O)N[C@@H](CCCCN)C(=O)NCCC2CCCCC2)cc1 | – | –
3 µM | – | – | NCCCC[C@H](NC(=O)[C@H](CO)NC(=O)CCCCCCCCCCCn1ccnc1)C(=O)NCCC1CCCCC1 | – | –
3 µM | – | – | NCCCC[C@H](NC(=O)[C@H](CO)NC(=O)CCCCCCCCCn1ccnc1)C(=O)NCCC1CCCCC1 | – | –
1.2 µM | – | – | NCCCC[C@H](NC(=O)[C@H](CO)NC(=O)Cc1ccc(CCCCCn2ccnc2)cc1)C(=O)NCCC1CCCCC1 | – | –
